These results are taken from US11413278B2, “Compounds and methods for promoting stress resistance” (priority 2015, dated 2022).

The test system of series [1] is two breast cancer-derived tumor cell lines. In words: Viability of breast cancer-derived tumor cell lines. Conditions: 5 μM. The class given is cell-based.
The next series concerns the target T1, SENP7 (Homo sapiens, UniProt Q9BQF6).
T1 sequence (Q9BQF6 1-1050): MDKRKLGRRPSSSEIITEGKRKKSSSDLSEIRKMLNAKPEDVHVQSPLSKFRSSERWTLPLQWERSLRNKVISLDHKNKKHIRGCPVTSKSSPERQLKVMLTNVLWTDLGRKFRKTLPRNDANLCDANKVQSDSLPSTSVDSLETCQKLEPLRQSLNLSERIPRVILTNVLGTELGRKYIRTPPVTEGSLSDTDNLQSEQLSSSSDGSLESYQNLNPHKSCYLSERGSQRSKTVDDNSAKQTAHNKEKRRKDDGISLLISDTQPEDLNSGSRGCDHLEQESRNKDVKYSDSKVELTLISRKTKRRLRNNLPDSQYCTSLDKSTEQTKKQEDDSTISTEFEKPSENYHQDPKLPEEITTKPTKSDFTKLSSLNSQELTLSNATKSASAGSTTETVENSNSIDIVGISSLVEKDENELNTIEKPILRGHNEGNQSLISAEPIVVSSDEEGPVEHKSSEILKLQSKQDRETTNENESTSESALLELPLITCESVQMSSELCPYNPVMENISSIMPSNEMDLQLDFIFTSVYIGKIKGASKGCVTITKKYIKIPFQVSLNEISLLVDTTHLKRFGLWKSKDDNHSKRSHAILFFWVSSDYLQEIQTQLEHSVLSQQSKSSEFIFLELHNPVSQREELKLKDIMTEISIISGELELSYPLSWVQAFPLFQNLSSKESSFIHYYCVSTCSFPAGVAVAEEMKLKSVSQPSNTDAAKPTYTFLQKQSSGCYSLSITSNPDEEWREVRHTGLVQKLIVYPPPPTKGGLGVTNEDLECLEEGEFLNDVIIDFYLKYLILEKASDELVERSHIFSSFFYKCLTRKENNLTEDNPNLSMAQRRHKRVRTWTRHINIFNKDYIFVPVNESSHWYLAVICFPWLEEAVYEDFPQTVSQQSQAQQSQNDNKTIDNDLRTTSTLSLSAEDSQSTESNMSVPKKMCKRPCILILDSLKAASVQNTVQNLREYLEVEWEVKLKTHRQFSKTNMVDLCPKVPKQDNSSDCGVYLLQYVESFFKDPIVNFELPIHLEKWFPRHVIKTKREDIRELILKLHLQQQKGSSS
Conditions: 2 screens; 5.0 μM or 12. μM; cited from earlier work.

The test system of the next series is DNA. In words: Comet assay (DNA damage). The class given is cell-based. Conditions: preliminary analysis.

For the compound `[O-][n+]1onc2c3nsnc3c(Br)cc21` [O17], in series [1], the “Cell viability in two breast cancer-derived tumor cell lines” value was “significantly reduce cell viability”.

`Cc1ccc(NC(=O)c2ccc([N+](=O)[O-])o2)cc1C` [Gr-1F]: at SENP7, the SENP7 inhibition is on record as approximately 90%.

Consider `O=C(NCc1cccnc1)/C(=C\c1cccc(Oc2ccccc2)c1)S(=O)(=O)c1ccccc1` [Gr-7A], for which the “Fraction of damaged DNA with long comet tails” value in the series on DNA is listed as “significantly increased the fraction of damaged DNA with long comet tails”.
